Where a SMILES comes first, the peptide text is derived from it. The star is where a group is joined. AMC = Cc1cc(=O)oc2cc(N*)ccc12; Decanoyl = CCCCCCCCCC(=O)*
Columns and labels:
[1] = biological target: T1, NAD-dependent protein deacetylase sirtuin-3, mitochondrial (Homo sapiens) (UniProt Q9NTG7); experiment: Substrate activity at human N-terminal His-tagged SIRT3 (122 to 391 residues) expressed in Escherichia coli at 0.5 uM measured after 2 hrs in presence of NAD+ and trypsin by fluorescence assay
T1 sequence (whole entry): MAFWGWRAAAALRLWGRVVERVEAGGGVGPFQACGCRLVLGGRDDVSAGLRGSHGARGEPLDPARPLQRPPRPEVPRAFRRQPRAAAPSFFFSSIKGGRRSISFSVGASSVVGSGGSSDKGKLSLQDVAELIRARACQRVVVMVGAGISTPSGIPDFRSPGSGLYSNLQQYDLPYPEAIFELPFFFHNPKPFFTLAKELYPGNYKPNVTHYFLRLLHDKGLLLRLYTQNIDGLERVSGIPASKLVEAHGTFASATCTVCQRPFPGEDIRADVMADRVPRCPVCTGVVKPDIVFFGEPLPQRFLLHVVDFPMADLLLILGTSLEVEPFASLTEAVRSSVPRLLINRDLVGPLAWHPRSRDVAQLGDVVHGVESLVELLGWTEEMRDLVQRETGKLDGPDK

[2] = biological target: T2, NAD-dependent protein deacetylase sirtuin-7 (Homo sapiens) (UniProt Q9NRC8); experiment: Substrate activity at human N-terminal His-tagged SIRT7 (68 to 354 residues) expressed in Escherichia coli at 5 uM measured after 2 hrs in presence of NAD+ and trypsin by fluorescence assay
T2 sequence (whole entry): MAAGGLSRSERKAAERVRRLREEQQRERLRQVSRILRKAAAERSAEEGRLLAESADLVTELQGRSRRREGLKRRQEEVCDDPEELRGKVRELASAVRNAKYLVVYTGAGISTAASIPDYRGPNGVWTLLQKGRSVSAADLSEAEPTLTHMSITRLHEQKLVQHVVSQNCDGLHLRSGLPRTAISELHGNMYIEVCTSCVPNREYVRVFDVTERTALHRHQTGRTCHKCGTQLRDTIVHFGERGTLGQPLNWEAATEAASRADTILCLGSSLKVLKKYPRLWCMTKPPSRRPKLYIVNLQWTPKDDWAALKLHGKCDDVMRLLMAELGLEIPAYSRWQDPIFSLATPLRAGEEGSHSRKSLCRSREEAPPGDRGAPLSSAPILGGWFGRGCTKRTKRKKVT

[3] = biological target: T1, NAD-dependent protein deacetylase sirtuin-3, mitochondrial (Homo sapiens); experiment: Substrate activity at human N-terminal His-tagged SIRT3 (122 to 391 residues) expressed in Escherichia coli at 5 uM measured after 2 hrs in presence of NAD+ and trypsin by fluorescence assay
[4] = biological target: T2, NAD-dependent protein deacetylase sirtuin-7 (Homo sapiens); experiment: Substrate activity at human N-terminal His-tagged SIRT7 (68 to 354 residues) expressed in Escherichia coli at 50 uM measured after 2 hrs in presence of NAD+ and trypsin by fluorescence assay
[5] = biological target: NAD-dependent protein deacylase sirtuin-6 (Homo sapiens) (UniProt Q8N6T7); experiment: Substrate activity at human N-terminal His-tagged SIRT6 (1 to 355 residues) expressed in Escherichia coli at 5 uM measured after 2 hrs in presence of NAD+ and trypsin by fluorescence assay
[6] = biological target: NAD-dependent protein deacylase sirtuin-6 (Homo sapiens) (UniProt Q8N6T7); experiment: Substrate activity at human N-terminal His-tagged SIRT6 (1 to 355 residues) expressed in Escherichia coli at 50 uM measured after 2 hrs in presence of NAD+ and trypsin by fluorescence assay
[7] = biological target: T3, NAD-dependent protein deacetylase sirtuin-2 (Homo sapiens) (UniProt Q8IXJ6); experiment: Substrate activity at human N-terminal His-tagged SIRT2 (56 to 356 residues) expressed in Escherichia coli at 5 uM measured after 2 hrs in presence of NAD+ and trypsin by fluorescence assay
T3 sequence (whole entry): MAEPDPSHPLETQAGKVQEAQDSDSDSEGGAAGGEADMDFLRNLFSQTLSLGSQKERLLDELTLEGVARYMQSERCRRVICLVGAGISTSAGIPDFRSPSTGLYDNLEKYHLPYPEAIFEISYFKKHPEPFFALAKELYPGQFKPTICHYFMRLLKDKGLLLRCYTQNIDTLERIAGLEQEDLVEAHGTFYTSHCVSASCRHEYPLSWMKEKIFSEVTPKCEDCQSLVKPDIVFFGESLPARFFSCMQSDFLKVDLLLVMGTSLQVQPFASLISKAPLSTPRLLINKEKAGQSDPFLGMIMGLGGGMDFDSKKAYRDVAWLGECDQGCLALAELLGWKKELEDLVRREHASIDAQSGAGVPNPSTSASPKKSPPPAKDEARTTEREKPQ

[8] = biological target: T4, NAD-dependent protein deacetylase sirtuin-1 (Homo sapiens) (UniProt Q96EB6); experiment: Substrate activity at human N-terminal His-tagged SIRT1 (183 to 664 residues) expressed in Escherichia coli at 5 uM measured after 2 hrs in presence of NAD+ and trypsin by fluorescence assay
T4 sequence (whole entry): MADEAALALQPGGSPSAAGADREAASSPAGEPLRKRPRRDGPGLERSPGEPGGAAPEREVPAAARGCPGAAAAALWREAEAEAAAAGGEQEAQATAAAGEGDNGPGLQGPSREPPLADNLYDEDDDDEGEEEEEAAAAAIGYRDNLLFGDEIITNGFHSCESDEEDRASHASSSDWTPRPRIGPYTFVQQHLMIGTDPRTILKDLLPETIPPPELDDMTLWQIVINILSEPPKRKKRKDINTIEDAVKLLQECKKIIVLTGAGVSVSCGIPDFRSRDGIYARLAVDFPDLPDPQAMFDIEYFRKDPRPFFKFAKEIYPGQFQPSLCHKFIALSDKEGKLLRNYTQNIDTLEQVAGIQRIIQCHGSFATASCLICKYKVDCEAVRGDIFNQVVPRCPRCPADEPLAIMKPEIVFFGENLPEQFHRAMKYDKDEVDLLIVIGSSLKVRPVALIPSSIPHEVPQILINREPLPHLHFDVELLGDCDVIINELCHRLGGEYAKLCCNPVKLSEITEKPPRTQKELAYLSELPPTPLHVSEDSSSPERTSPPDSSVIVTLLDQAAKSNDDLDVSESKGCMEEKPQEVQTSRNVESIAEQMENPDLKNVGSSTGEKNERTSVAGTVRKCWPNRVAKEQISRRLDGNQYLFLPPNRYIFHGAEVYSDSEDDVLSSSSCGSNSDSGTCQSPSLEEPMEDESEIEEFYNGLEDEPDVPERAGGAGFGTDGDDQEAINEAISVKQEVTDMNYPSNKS

[9] = biological target: NAD-dependent protein deacylase sirtuin-5, mitochondrial (Homo sapiens) (UniProt Q9NXA8); experiment: Substrate activity at human N-terminal His-tagged SIRT5 (34 to 302 residues) expressed in Escherichia coli at 0.5 uM measured after 2 hrs in presence of NAD+ and trypsin by fluorescence assay
[10] = biological target: T2, NAD-dependent protein deacetylase sirtuin-7 (Homo sapiens); experiment: Substrate activity at human N-terminal His-tagged SIRT7 (68 to 354 residues) expressed in Escherichia coli at 0.5 uM measured after 2 hrs in presence of NAD+ and trypsin by fluorescence assay
[11] = biological target: T3, NAD-dependent protein deacetylase sirtuin-2 (Homo sapiens); experiment: Substrate activity at human N-terminal His-tagged SIRT2 (56 to 356 residues) expressed in Escherichia coli at 0.5 uM measured after 2 hrs in presence of NAD+ and trypsin by fluorescence assay
[12] = biological target: T1, NAD-dependent protein deacetylase sirtuin-3, mitochondrial (Homo sapiens); experiment: Substrate activity at human N-terminal His-tagged SIRT3 (122 to 391 residues) expressed in Escherichia coli at 50 uM measured after 2 hrs in presence of NAD+ and trypsin by fluorescence assay
[13] = biological target: NAD-dependent protein deacylase sirtuin-6 (Homo sapiens) (UniProt Q8N6T7); experiment: Substrate activity at human N-terminal His-tagged SIRT6 (1 to 355 residues) expressed in Escherichia coli at 0.5 uM measured after 2 hrs in presence of NAD+ and trypsin by fluorescence assay
[14] = biological target: T3, NAD-dependent protein deacetylase sirtuin-2 (Homo sapiens); experiment: Substrate activity at human N-terminal His-tagged SIRT2 (56 to 356 residues) expressed in Escherichia coli at 50 uM measured after 2 hrs in presence of NAD+ and trypsin by fluorescence assay
[15] = biological target: T4, NAD-dependent protein deacetylase sirtuin-1 (Homo sapiens); experiment: Substrate activity at human N-terminal His-tagged SIRT1 (183 to 664 residues) expressed in Escherichia coli at 0.5 uM measured after 2 hrs in presence of NAD+ and trypsin by fluorescence assay
[16] = biological target: T4, NAD-dependent protein deacetylase sirtuin-1 (Homo sapiens); experiment: Substrate activity at human N-terminal His-tagged SIRT1 (183 to 664 residues) expressed in Escherichia coli at 50 uM measured after 2 hrs in presence of NAD+ and trypsin by fluorescence assay
[17] = biological target: NAD-dependent protein deacylase sirtuin-5, mitochondrial (Homo sapiens) (UniProt Q9NXA8); experiment: Substrate activity at human N-terminal His-tagged SIRT5 (34 to 302 residues) expressed in Escherichia coli at 50 uM measured after 2 hrs in presence of NAD+ and trypsin by fluorescence assay
[18] = biological target: NAD-dependent protein deacylase sirtuin-5, mitochondrial (Homo sapiens) (UniProt Q9NXA8); experiment: Substrate activity at human N-terminal His-tagged SIRT5 (34 to 302 residues) expressed in Escherichia coli at 5 uM measured after 2 hrs in presence of NAD+ and trypsin by fluorescence assay

NAD-dependent protein deacylase sirtuin-6 (Homo sapiens), sequence (Q8N6T7 whole entry, the tested form may be a part): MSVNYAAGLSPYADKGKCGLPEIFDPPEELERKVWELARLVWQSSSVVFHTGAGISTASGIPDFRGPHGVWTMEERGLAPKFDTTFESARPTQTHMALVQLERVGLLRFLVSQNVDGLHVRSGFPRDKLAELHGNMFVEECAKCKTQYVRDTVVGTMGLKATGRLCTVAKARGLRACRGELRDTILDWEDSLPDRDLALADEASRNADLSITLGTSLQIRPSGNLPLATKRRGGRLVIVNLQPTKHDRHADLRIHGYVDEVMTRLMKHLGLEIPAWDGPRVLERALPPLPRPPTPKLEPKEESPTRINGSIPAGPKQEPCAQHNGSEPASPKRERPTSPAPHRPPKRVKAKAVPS
NAD-dependent protein deacylase sirtuin-5, mitochondrial (Homo sapiens), sequence (Q9NXA8 37-310 limits assumed): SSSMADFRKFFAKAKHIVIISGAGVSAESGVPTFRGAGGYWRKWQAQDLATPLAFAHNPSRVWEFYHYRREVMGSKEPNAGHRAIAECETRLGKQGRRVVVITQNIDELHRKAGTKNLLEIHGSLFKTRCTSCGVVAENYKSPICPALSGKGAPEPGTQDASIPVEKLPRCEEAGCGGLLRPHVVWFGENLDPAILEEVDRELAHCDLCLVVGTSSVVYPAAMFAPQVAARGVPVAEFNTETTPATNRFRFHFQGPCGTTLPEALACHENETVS

Activity [1] [RFU] | Activity [2] [RFU] | Activity [3] [RFU] | Activity [4] [RFU] | Activity [5] [RFU] | Activity [6] [RFU] | Activity [7] [RFU] | Activity [8] [RFU] | Activity [9] [RFU] | Activity [10] [RFU] | Activity [11] [RFU] | Activity [12] [RFU] | Activity [13] [RFU] | Activity [14] [RFU] | Activity [15] [RFU] | Activity [16] [RFU] | Activity [17] [RFU] | Activity [18] [RFU] | Compound
0.28 | 0.33 | 0.38 | 0.43 | 0.38 | 0.43 | 0.73 | 1.13 | 0.37 | 0.39 | 0.37 | 1.61 | 0.5 | 2.64 | 0.37 | 5.22 | 0.61 | 0.3 | CC(=O)NCCCC[C@H](NC(=O)[C@H](CCCCN)NC(=O)[C@H](Cc1cnc[nH]1)NC(=O)[C@H](CCCNC(=N)N)NC(C)=O)C(=O)Nc1ccc2c(C)cc(=O)oc2c1 (Ac-RHKK(Ac)-{AMC})
0.34 | 0.32 | 0.41 | 0.44 | 0.36 | 0.44 | 0.24 | 0.37 | 0.27 | 0.38 | 0.23 | 0.67 | 0.49 | 0.52 | 0.23 | 1.21 | 1.02 | 0.28 | CC(=O)NCCCC[C@H](NC(=O)[C@H](CCCNC(=N)N)NC(=O)[C@H](CO)NC(=O)[C@H](CC(N)=O)NC(C)=O)C(=O)Nc1ccc2c(C)cc(=O)oc2c1 (Ac-NSRK(Ac)-{AMC})
0.26 | 0.35 | 0.4 | 0.79 | 0.38 | 0.79 | 0.65 | 0.46 | 0.26 | 0.35 | 0.25 | 1.08 | 0.48 | 1.94 | 0.25 | 1.43 | 1.38 | 0.28 | CCCCCCCCCC(=O)NCCCC[C@H](NC(=O)[C@H](CCCNC(=N)N)NC(=O)[C@H](C)NC(=O)[C@@H](NC(C)=O)[C@@H](C)O)C(=O)Nc1ccc2c(C)cc(=O)oc2c1 (Ac-TARK(Decanoyl)-{AMC})
